These results are taken from ChEMBL document CHEMBL1201862, “PubChem BioAssay data set” (2004).

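Grown in 96-well plates, cells were treated for 48 hours with each compound at five concentrations. Insufficient inhibition: endpoint recorded as highest concentration tested. GI50 marks 50% less growth.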 Active and inactive are the calls of the source. No stated cut-off is given here; in the data, active = GI50 up to about 1.1 µM and inactive = higher.

Some test systems named below: A498; ACHN; DU-145; HCT-15; HOP-62; HOP-92; IGROV-1; KM12; LOX IMVI; MDA-N; OVCAR-4; OVCAR-5; OVCAR-8; RXF 393; SK-MEL-28; SK-MEL-2; SK-MEL-5; T47D; TK-10.
Holding throughout (assay): NCI tumour cell line growth inhibition, 48 h

Take `c1ccc(/C(=N\Nc2nc3ccccc3s2)c2ccccn2)cc1`: the GI50 with A498 was 6.15 µM (inactive); with ACHN, 0.815 µM (active); in the assay on DU-145, 3.75 µM (inactive); with HCT-15 it was 0.622 µM; with HOP-62, 6.47 µM (inactive); with HOP-92, 7.31 µM (inactive). In addition, the GI50 with IGROV-1 was 4.69 µM (inactive); with KM12 it was 3.56 µM (inactive); in the assay on LOX IMVI, 4.04 µM (inactive); in the assay on MDA-N, 4.94 µM (inactive); in the assay on OVCAR-4 it was 2.66 µM (inactive); with OVCAR-5, 3.91 µM (inactive). Besides, the GI50 with OVCAR-8 is 2.52 µM (inactive); in the assay on RXF 393, 4.3 µM (inactive); with SK-MEL-28, 8.13 µM (inactive); in the assay with SK-MEL-2, 4.08 µM (inactive); with SK-MEL-5 it was 2.49 µM (inactive); in the assay with T47D it was < 0.0248 µM (active). Besides, in the assay with TK-10, the GI50 was 1.38 µM (inactive).
In the case of `N/N=C1\C(OC(=O)Nc2cccc(Cl)c2)=Nc2ccccc21`, the GI50 is 11.4 µM (inactive) in the assay with A498; 8 µM (inactive) in the assay with ACHN; 8.39 µM (inactive) in the assay on DU-145; 6.89 µM with HCT-15; 2.75 µM (inactive) in the assay with HOP-62; 6.47 µM (inactive) in the assay on HOP-92. Also, the GI50 in the assay with IGROV-1 was 8.15 µM (inactive); with KM12 it was 4.58 µM (inactive); with LOX IMVI, 7.83 µM (inactive); in the assay with MDA-N it was 3.12 µM (inactive); in the assay with OVCAR-4, 7.33 µM (inactive); with OVCAR-5, 14 µM (inactive). For the same molecule, the GI50 was 7.31 µM (inactive) in the assay on OVCAR-8; 13 µM (inactive) in the assay with RXF 393; 14.8 µM (inactive) in the assay with SK-MEL-28; 10.3 µM (inactive) in the assay with SK-MEL-2; 11.5 µM (inactive) with SK-MEL-5; 2.45 µM (inactive) with T47D. Besides, in the assay on TK-10, the GI50 was 12.1 µM (inactive).
On to `CC(C)(C)N1Cc2ccccc2/C(=C/Sc2ccccc2)C1=O`, for which the GI50 with A498 was 20 µM (inactive); in the assay on ACHN, 17.9 µM (inactive); in the assay on DU-145, 16.9 µM (inactive); with HCT-15, 12.9 µM; in the assay on HOP-62, 17.3 µM (inactive); with HOP-92 it was 13.3 µM (inactive). Further, the GI50 with IGROV-1 is 10.1 µM (inactive); in the assay on KM12, 17 µM (inactive); with LOX IMVI, 2.64 µM (inactive); with MDA-N, 6.55 µM (inactive); in the assay with OVCAR-4, 7.01 µM (inactive); in the assay with OVCAR-5 it was 19.4 µM (inactive). For the same molecule, the GI50 in the assay on OVCAR-8 is 8.11 µM (inactive); in the assay with RXF 393 it was 16.2 µM (inactive); in the assay on SK-MEL-28, 17.5 µM (inactive); in the assay with SK-MEL-2 it was 15.2 µM (inactive); in the assay with SK-MEL-5, 6.9 µM (inactive); with T47D, 16.6 µM (inactive). In addition, the GI50 with TK-10 is 19 µM (inactive).
On to `COC(=O)c1c(C)cccc1C1CN=NC12Cc1cc(C)cc(C)c1C2=O` (centres undefined), for which the GI50 in the assay on A498 is 24.9 µM (inactive); with ACHN, 41.5 µM (inactive); with DU-145, 84.7 µM (inactive); in the assay with HCT-15, 30.5 µM; in the assay on HOP-62, 44 µM (inactive); in the assay on HOP-92, 20.4 µM (inactive). Besides, the GI50 is 57.7 µM (inactive) with IGROV-1; 31.4 µM (inactive) with KM12; 17 µM (inactive) in the assay on LOX IMVI; 37.6 µM (inactive) in the assay on MDA-N; 29.2 µM (inactive) with OVCAR-4; 48 µM (inactive) in the assay with OVCAR-5. Moreover, the GI50 with OVCAR-8 is 54.1 µM (inactive); in the assay with RXF 393, 34 µM (inactive); in the assay with SK-MEL-28 it was 76.4 µM (inactive); in the assay on SK-MEL-2, 27.7 µM (inactive); in the assay with SK-MEL-5 it was 19.2 µM (inactive); with T47D, 30.2 µM (inactive). The GI50 in the assay on TK-10 is 32.4 µM (inactive).
For `O=C1NC(=O)C(F)(n2cc(F)c(=O)[nH]c2=O)C(O)N1` (centres undefined), the GI50 with A498 was > 10 µM (inactive); with ACHN, > 10 µM (inactive); with DU-145, > 10 µM (inactive); in the assay with HCT-15, greater than 10 µM; in the assay with HOP-62 it was > 10 µM (inactive); in the assay with HOP-92, > 10 µM (inactive). Besides, the GI50 in the assay on IGROV-1, in the assay on KM12, in the assay with LOX IMVI, in the assay on MDA-N, in the assay with OVCAR-4 and in the assay on OVCAR-5 was > 10 µM (inactive) in each case. The GI50 with OVCAR-8, in the assay with RXF 393, in the assay with SK-MEL-28, with SK-MEL-2, in the assay with SK-MEL-5 and in the assay on T47D was > 10 µM (inactive) in each case. For the same molecule, in the assay with TK-10, the GI50 is > 10 µM (inactive).
With `C=CCN(c1cc(OCc2ccccc2)c2[nH]cc(C)c2c1)S(C)(=O)=O`, the GI50 is 29.2 µM (inactive) in the assay with A498; 37.6 µM (inactive) with ACHN; 40 µM (inactive) in the assay on DU-145; greater than 100 µM with HCT-15; 39 µM (inactive) with HOP-62; 44 µM (inactive) in the assay with HOP-92. In addition, the GI50 with IGROV-1 was 88.7 µM (inactive); in the assay on KM12, 51.4 µM (inactive); with LOX IMVI, > 100 µM (inactive); in the assay on MDA-N, 89.7 µM (inactive); in the assay with OVCAR-4, 34.4 µM (inactive); with OVCAR-5, 79.8 µM (inactive). For the same molecule, the GI50 is 61.9 µM (inactive) in the assay with OVCAR-8; 23.1 µM (inactive) with RXF 393; 48.8 µM (inactive) in the assay with SK-MEL-28; 41.7 µM (inactive) in the assay with SK-MEL-2; 52.4 µM (inactive) with SK-MEL-5; 18.8 µM (inactive) with T47D. Also, the GI50 in the assay with TK-10 is 92.3 µM (inactive).
Turning to `COC1CC(OC2OC(CO)C(O)C(O)C2O)/C(=C\C#N)C(O)C1OC` (centres undefined), the GI50 was > 100 µM (inactive) in the assay with A498; > 100 µM (inactive) with ACHN; > 100 µM (inactive) in the assay on DU-145; greater than 100 µM in the assay on HCT-15; > 100 µM (inactive) in the assay on HOP-62; > 100 µM (inactive) in the assay on HOP-92. Also, the GI50 in the assay with IGROV-1, in the assay with KM12, in the assay with LOX IMVI, with MDA-N, in the assay with OVCAR-4 and with OVCAR-5 was > 100 µM (inactive) each time. In addition, the GI50 with OVCAR-8, in the assay on RXF 393, with SK-MEL-28, in the assay on SK-MEL-2, in the assay on SK-MEL-5 and with T47D was > 100 µM (inactive) each time. The GI50 in the assay with TK-10 was > 100 µM (inactive).
As to `O=C1c2c(ccc3c2CCC3)CC12Cc1ccccc1C2`, the GI50 in the assay on A498 was 12.4 µM (inactive); in the assay with ACHN, 13.7 µM (inactive); in the assay on DU-145, 17.7 µM (inactive); in the assay with HCT-15, 15.6 µM; in the assay with HOP-62 it was 20.9 µM (inactive); in the assay with HOP-92, 10.5 µM (inactive). In addition, the GI50 was 29 µM (inactive) with IGROV-1; 22.5 µM (inactive) in the assay on KM12; 12.7 µM (inactive) in the assay on LOX IMVI; 2.94 µM (inactive) with MDA-N; 31.2 µM (inactive) with OVCAR-4; 30 µM (inactive) in the assay with OVCAR-5. Further, the GI50 with OVCAR-8 is 20.5 µM (inactive); in the assay with RXF 393, 11.5 µM (inactive); with SK-MEL-28, 25 µM (inactive); with SK-MEL-2 it was 21.4 µM (inactive); with SK-MEL-5, 10.9 µM (inactive); in the assay with T47D, 28.2 µM (inactive). In addition, the GI50 in the assay on TK-10 was 21.5 µM (inactive).
Consider `CCN(CCCl)c1cc(CN(C)C)cc(NC(=O)c2ccc(C(=O)Nc3ccccc3)cc2)c1`, for which the GI50 in the assay on A498 is 0.316 µM (active); in the assay on ACHN, 0.218 µM (active); in the assay on DU-145, 0.415 µM (active); with HCT-15, 1.7 µM; with HOP-62, 0.314 µM (active); with HOP-92, 0.414 µM (active). Moreover, the GI50 was 0.177 µM (active) in the assay on IGROV-1; 1.06 µM (active) with KM12; 0.204 µM (active) in the assay with LOX IMVI; 0.298 µM (active) in the assay on MDA-N; 0.288 µM (active) in the assay with OVCAR-4; 0.836 µM (active) in the assay on OVCAR-5. The GI50 is 0.417 µM (active) with OVCAR-8; 0.152 µM (active) in the assay with RXF 393; 1.19 µM (inactive) with SK-MEL-28; 0.27 µM (active) with SK-MEL-2; 0.194 µM (active) in the assay with SK-MEL-5; 1.24 µM (inactive) in the assay on T47D. Moreover, the GI50 in the assay on TK-10 is 3.02 µM (inactive).
Turning to `CCCCOc1ccc(S(=O)(=O)N/C(N)=N/c2ccc(Cl)cc2)cc1`, the GI50 in the assay on A498 is 12.1 µM (inactive); with ACHN it was 14.6 µM (inactive); with DU-145, 17.4 µM (inactive); in the assay on HCT-15, 14 µM; in the assay with HOP-62 it was 20.2 µM (inactive); in the assay with HOP-92, 10.8 µM (inactive). For the same molecule, the GI50 with IGROV-1 is 14.7 µM (inactive); in the assay with KM12, 17.9 µM (inactive); in the assay with LOX IMVI, 17.3 µM (inactive); with MDA-N it was 16.2 µM (inactive); in the assay on OVCAR-4 it was 10.2 µM (inactive); with OVCAR-5, 17.7 µM (inactive). Further, the GI50 was 16.1 µM (inactive) in the assay with OVCAR-8; 16.1 µM (inactive) in the assay on RXF 393; 16.7 µM (inactive) in the assay with SK-MEL-28; 17.1 µM (inactive) in the assay on SK-MEL-2; 18.9 µM (inactive) in the assay on SK-MEL-5; 10.7 µM (inactive) in the assay with T47D. Also, in the assay with TK-10, the GI50 is 14.9 µM (inactive).
`NC1=CN2c3ccccc3N(CC(=O)N3CCOCC3)C2C=C1` (centres undefined): the GI50 was 52.1 µM (inactive) in the assay with A498; > 100 µM (inactive) in the assay with ACHN; > 100 µM (inactive) in the assay on DU-145; greater than 100 µM in the assay on HCT-15; > 100 µM (inactive) with HOP-62; > 100 µM (inactive) with HOP-92. Moreover, the GI50 in the assay with IGROV-1, with KM12, with LOX IMVI, in the assay with MDA-N, with OVCAR-4 and with OVCAR-5 was > 100 µM (inactive) each time. Further, the GI50 in the assay on OVCAR-8, in the assay on RXF 393, with SK-MEL-28, in the assay with SK-MEL-2, in the assay on SK-MEL-5 and in the assay with T47D was > 100 µM (inactive) in each case. Besides, the GI50 in the assay with TK-10 is > 100 µM (inactive).
